Experimental data: ChEMBL document CHEMBL1150306, “2-Trifluoroacetylthiophenes, a novel series of potent and selective class II histone deacetylase inhibitors” (Bioorg Med Chem Lett, 2008)
Active and inactive are the calls of the source. No cut-off for these calls is given here.

Columns and labels:
Histone deacetylase 3 [1] = target: T1, Histone deacetylase 3 (Homo sapiens, UniProt O15379); test: Inhibition of HDAC3 at 10 uM
Histone deacetylase 4 [2] = target: Histone deacetylase 4 (Homo sapiens, UniProt P56524, H976Y); test: Inhibition of HDAC4GOF mutant expressed in Escherichia coli
[3] = target: T2, Protein deacetylase HDAC6 (Homo sapiens, UniProt Q9UBN7); test: Inhibition of HDAC6
T2 sequence (Q9UBN7 whole entry): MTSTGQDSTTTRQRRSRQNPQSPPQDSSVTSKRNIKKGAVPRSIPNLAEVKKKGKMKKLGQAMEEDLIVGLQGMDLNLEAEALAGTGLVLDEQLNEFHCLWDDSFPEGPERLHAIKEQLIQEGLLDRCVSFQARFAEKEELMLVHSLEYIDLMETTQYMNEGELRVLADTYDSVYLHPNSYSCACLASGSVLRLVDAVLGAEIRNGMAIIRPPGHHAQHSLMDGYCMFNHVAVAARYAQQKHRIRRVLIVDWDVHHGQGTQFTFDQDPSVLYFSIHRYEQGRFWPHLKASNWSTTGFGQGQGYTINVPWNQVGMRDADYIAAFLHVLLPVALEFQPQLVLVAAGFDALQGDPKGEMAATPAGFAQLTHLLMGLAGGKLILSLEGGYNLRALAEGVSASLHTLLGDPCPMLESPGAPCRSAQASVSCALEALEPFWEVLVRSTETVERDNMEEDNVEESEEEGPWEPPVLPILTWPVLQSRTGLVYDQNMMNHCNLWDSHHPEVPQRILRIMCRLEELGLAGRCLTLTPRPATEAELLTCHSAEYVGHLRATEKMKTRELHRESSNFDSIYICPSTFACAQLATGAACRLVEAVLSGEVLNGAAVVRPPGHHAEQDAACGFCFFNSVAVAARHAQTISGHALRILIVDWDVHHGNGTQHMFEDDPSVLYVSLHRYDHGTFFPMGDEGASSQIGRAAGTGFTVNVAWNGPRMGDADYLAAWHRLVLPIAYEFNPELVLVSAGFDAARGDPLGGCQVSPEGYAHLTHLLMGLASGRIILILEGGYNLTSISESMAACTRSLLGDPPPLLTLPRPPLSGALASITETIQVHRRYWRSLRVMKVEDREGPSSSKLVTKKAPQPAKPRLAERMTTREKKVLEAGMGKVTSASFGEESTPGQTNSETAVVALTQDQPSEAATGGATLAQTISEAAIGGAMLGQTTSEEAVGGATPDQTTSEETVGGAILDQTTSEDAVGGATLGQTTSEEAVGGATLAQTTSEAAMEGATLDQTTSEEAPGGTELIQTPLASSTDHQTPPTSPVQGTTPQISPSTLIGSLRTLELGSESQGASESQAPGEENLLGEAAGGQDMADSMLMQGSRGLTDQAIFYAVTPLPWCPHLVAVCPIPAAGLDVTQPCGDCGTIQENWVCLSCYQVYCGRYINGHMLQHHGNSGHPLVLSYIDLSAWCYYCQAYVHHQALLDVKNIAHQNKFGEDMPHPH

Histone deacetylase 1 [4] = target: T3, Histone deacetylase 1 (Homo sapiens, UniProt Q13547); test: Inhibition of HDAC1 at 10 uM
Histone deacetylase 4 [5] = target: Histone deacetylase 4 (Homo sapiens, UniProt P56524); test: Inhibition of wild type HDAC4 expressed in Escherichia coli
Histone deacetylase 1 [6] = target: T3, Histone deacetylase 1; test: Inhibition of HDAC1
Histone deacetylase 3 [7] = target: T1, Histone deacetylase 3; test: Inhibition of HDAC3

Histone deacetylase 4 (Homo sapiens, UniProt P56524, H976Y), sequence (P56524 whole entry H976Y): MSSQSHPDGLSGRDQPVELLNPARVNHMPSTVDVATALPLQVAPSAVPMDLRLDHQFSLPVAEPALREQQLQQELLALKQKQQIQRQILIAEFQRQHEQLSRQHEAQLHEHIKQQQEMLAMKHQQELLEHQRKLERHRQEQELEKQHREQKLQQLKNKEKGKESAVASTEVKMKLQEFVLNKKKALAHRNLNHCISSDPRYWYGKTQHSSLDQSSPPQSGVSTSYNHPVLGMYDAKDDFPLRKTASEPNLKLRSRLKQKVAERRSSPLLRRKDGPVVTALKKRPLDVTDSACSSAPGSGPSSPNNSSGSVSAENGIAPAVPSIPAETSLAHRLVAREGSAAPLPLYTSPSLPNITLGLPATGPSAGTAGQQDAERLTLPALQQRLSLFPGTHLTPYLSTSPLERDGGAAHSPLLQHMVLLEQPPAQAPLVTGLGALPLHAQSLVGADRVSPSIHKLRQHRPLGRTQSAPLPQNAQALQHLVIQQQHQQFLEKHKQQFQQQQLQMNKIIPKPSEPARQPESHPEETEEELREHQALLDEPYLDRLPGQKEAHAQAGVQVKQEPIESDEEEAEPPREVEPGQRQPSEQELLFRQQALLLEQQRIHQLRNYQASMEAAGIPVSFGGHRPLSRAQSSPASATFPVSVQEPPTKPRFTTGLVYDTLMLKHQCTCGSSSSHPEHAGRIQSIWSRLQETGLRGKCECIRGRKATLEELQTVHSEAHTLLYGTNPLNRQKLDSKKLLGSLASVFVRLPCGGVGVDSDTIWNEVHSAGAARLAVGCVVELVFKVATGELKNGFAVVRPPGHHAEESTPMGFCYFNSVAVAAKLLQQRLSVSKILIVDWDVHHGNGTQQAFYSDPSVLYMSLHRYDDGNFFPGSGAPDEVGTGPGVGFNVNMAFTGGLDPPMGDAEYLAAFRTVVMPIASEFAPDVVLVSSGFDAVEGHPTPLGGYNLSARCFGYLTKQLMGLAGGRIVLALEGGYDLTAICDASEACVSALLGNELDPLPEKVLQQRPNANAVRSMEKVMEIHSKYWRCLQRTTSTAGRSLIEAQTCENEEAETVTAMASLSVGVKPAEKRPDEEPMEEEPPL
T3 sequence (Q13547 whole entry): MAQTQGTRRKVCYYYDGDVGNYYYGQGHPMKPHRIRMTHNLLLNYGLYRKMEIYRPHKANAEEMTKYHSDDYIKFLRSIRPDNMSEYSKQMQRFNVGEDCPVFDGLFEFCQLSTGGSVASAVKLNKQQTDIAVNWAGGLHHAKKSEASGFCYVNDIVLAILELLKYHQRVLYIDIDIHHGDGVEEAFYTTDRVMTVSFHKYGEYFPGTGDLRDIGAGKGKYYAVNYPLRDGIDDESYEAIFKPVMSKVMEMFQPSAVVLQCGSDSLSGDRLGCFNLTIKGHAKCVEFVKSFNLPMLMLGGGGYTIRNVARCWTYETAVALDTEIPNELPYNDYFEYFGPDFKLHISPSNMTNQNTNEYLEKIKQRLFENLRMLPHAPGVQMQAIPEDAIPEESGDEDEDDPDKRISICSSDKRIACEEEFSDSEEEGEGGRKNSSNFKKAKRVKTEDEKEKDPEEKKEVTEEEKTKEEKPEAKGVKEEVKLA
T1 sequence (O15379 whole entry): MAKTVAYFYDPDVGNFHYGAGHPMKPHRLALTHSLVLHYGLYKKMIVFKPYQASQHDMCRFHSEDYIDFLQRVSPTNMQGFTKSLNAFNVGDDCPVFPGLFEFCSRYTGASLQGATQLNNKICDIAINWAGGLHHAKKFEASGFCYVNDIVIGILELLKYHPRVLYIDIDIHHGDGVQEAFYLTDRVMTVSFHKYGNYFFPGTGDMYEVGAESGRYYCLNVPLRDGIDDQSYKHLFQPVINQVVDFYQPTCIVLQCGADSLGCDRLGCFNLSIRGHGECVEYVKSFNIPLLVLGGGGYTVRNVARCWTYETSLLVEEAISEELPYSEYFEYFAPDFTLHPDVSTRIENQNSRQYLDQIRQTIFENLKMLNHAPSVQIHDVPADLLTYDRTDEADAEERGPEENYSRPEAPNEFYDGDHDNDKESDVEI
Histone deacetylase 4 (Homo sapiens, UniProt P56524), sequence (P56524 whole entry): as the sequence (P56524 whole entry H976Y) above, with Y976H counted along it

CN(Cc1ccccc1)C(=O)c1cc(C(=O)C(F)(F)F)cs1
Activity (Histone deacetylase 3 [1]): inactive
IC50 (Histone deacetylase 4 [2]): 2500 nM
IC50 [3]: 640 nM
Activity (Histone deacetylase 1 [4]): inactive
IC50 (Histone deacetylase 4 [5]): 1700 nM

O=C(c1ccc(C(=O)N2CCc3ccccc32)s1)C(F)F
inhibition (Histone deacetylase 3 [1]): 42%
IC50 (Histone deacetylase 4 [2]): 420 nM
IC50 (Histone deacetylase 1 [6]): 9700 nM
IC50 [3]: 15 nM
IC50 (Histone deacetylase 4 [5]): 7600 nM

C[C@@H](NC(=O)c1ccc(C(=O)C(F)(F)F)s1)c1ccccc1
IC50 (Histone deacetylase 4 [2]): 160 nM
IC50 (Histone deacetylase 1 [6]): 320 nM
IC50 [3]: 360 nM
IC50 (Histone deacetylase 3 [7]): 230 nM
IC50 (Histone deacetylase 4 [5]): 76 nM

O=C(c1ccc(C(=O)C(F)(F)F)s1)N1CCc2ccccc21
IC50 (Histone deacetylase 4 [2]): 300 nM
IC50 (Histone deacetylase 1 [6]): 2000 nM
IC50 [3]: 200 nM
IC50 (Histone deacetylase 3 [7]): 1700 nM
IC50 (Histone deacetylase 4 [5]): 130 nM

CCOC(=O)c1ccc(C(=O)C(F)(F)F)o1
Activity (Histone deacetylase 3 [1]): inactive
IC50 (Histone deacetylase 4 [2]): 3100 nM
IC50 [3]: 550 nM
inhibition (Histone deacetylase 1 [4]): 48%
IC50 (Histone deacetylase 4 [5]): 2500 nM

O=C(NCC1CCCCC1)c1cnc(C(=O)C(F)(F)F)s1
IC50 (Histone deacetylase 4 [2]): 2900 nM
IC50 [3]: 1500 nM
Activity (Histone deacetylase 1 [4]): inactive
IC50 (Histone deacetylase 3 [7]): 7600 nM
IC50 (Histone deacetylase 4 [5]): 850 nM

COc1ccc(COCc2ccc(C(=O)C(F)(F)F)s2)cc1
Activity (Histone deacetylase 3 [1]): inactive
IC50 (Histone deacetylase 4 [2]): 2700 nM
IC50 [3]: 410 nM
Activity (Histone deacetylase 1 [4]): inactive
IC50 (Histone deacetylase 4 [5]): 5500 nM

C[C@H](NC(=O)c1ccc(C(=O)C(F)(F)F)s1)c1ccccc1
IC50 (Histone deacetylase 4 [2]): 280 nM
IC50 (Histone deacetylase 1 [6]): 5300 nM
IC50 [3]: 210 nM
IC50 (Histone deacetylase 3 [7]): 9400 nM
IC50 (Histone deacetylase 4 [5]): 170 nM

O=C(NCC1CCCCC1)c1ccc(C(=O)C(F)(F)F)s1
IC50 (Histone deacetylase 4 [2]): 350 nM
IC50 (Histone deacetylase 1 [6]): 2900 nM
IC50 [3]: 460 nM
IC50 (Histone deacetylase 3 [7]): 3100 nM
IC50 (Histone deacetylase 4 [5]): 400 nM

CN(Cc1ccccc1)Cc1ccc(C(=O)C(F)(F)F)s1
IC50 (Histone deacetylase 4 [2]): 1100 nM
IC50 (Histone deacetylase 1 [6]): 3100 nM
IC50 [3]: 490 nM
IC50 (Histone deacetylase 3 [7]): 4600 nM
IC50 (Histone deacetylase 4 [5]): 970 nM

CN(Cc1ccccc1)C(=O)c1cnc(C(=O)C(F)(F)F)s1
IC50 (Histone deacetylase 4 [2]): 2200 nM
IC50 [3]: 1300 nM
inhibition (Histone deacetylase 1 [4]): 46%
IC50 (Histone deacetylase 3 [7]): 7300 nM
IC50 (Histone deacetylase 4 [5]): 760 nM

O=C(NCC1CCCCC1)c1cc(C(=O)C(F)(F)F)cs1
Activity (Histone deacetylase 3 [1]): inactive
IC50 (Histone deacetylase 4 [2]): 2400 nM
IC50 [3]: 2000 nM
inhibition (Histone deacetylase 1 [4]): 40%
IC50 (Histone deacetylase 4 [5]): 3300 nM

CN(Cc1ccccc1)C(=O)c1ccc(C(=O)C(F)(F)F)s1
IC50 (Histone deacetylase 4 [2]): 170 nM
IC50 (Histone deacetylase 1 [6]): 1800 nM
IC50 [3]: 230 nM
IC50 (Histone deacetylase 3 [7]): 1200 nM
IC50 (Histone deacetylase 4 [5]): 510 nM

COc1ccc(CNC(=O)c2ccc(C(=O)C(F)(F)F)s2)cc1
IC50 (Histone deacetylase 4 [2]): 70 nM
IC50 (Histone deacetylase 1 [6]): 210 nM
IC50 [3]: 240 nM
IC50 (Histone deacetylase 3 [7]): 120 nM
IC50 (Histone deacetylase 4 [5]): 180 nM

CN(Cc1ccccc1)S(=O)(=O)c1ccc(C(=O)C(F)(F)F)s1
Activity (Histone deacetylase 3 [1]): inactive
IC50 (Histone deacetylase 4 [2]): 1200 nM
IC50 [3]: 730 nM
Activity (Histone deacetylase 1 [4]): inactive
IC50 (Histone deacetylase 4 [5]): 340 nM

CCOC(=O)c1ccc(C(=O)C(F)(F)F)s1
IC50 (Histone deacetylase 4 [2]): 350 nM
IC50 (Histone deacetylase 1 [6]): 5700 nM
IC50 [3]: 550 nM
IC50 (Histone deacetylase 3 [7]): 3500 nM
IC50 (Histone deacetylase 4 [5]): 320 nM

CCNC(=O)c1ccc(C(=O)C(F)(F)F)s1
IC50 (Histone deacetylase 4 [2]): 1000 nM
IC50 (Histone deacetylase 1 [6]): 7100 nM
IC50 [3]: 310 nM
IC50 (Histone deacetylase 4 [5]): 1700 nM

O=C(NCCc1ccccc1)c1ccc(C(=O)C(F)(F)F)s1
IC50 (Histone deacetylase 4 [2]): 180 nM
IC50 (Histone deacetylase 1 [6]): 880 nM
IC50 [3]: 210 nM
IC50 (Histone deacetylase 3 [7]): 1700 nM
IC50 (Histone deacetylase 4 [5]): 330 nM

C[C@@H](NCc1ccc(C(=O)C(F)(F)F)s1)c1ccccc1
Activity (Histone deacetylase 3 [1]): inactive
IC50 (Histone deacetylase 4 [2]): 3500 nM
IC50 [3]: 840 nM
Activity (Histone deacetylase 1 [4]): inactive
IC50 (Histone deacetylase 4 [5]): 3700 nM
